Tests used:
[1] = tested on: MOLP-8 human multiple myeloma cell line; assay: Caspase-Glo 3/7 apoptosis induction assay in MOLP-8 cells; assay type: cell-based; details: Homo sapiens, MOLP-8, 2 h, caspase-3/7 activity, 2 hours at 37° C.; averaged over all runs on all batches; read-out: MOLP8 AC50
In short: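 MOLP-8 cells were treated for 2 h at 37° C with 10-dose, 1/3 serial dilutions ([…], 0.5% DMSO final, duplicates). Caspase-3/7 activity was read by Caspase-Glo luminescence 30 min after reagent addition. % effect was normalised between low (1% DMSO) and high (positive control) controls.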

[2] = target: Myeloid Cell Leukemia 1(Mcl-1) (Homo sapiens, UniProt Q07820); assay: Terbium labeled Mcl-1 HTRF binding assay with Cy5-labeled BIM BH3 peptide; details: displacement of Cy5 Bim BH3 peptide; Ki=IC50/(1+[L]/Kd), [L]=8 nM, Kd=10 nM; 60 minutes at room temperature; read-out: Tb-MCL1 Ki
Myeloid Cell Leukemia 1(Mcl-1), sequence (Q07820 whole entry): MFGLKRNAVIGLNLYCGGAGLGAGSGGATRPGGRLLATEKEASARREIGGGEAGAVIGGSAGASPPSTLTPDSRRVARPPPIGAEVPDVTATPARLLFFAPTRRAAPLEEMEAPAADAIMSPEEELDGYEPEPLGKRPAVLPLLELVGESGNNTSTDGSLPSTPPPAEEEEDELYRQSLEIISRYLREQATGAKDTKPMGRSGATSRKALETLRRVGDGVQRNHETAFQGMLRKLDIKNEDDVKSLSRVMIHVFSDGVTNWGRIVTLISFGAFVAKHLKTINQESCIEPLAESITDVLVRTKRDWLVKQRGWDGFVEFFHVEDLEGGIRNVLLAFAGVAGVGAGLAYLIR
In short: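 TR-FRET displacement of Cy5-BIM BH3 peptide (8 nM; Kd 10 nM) from 25 pM Tb-labelled Mcl-1 in 10 mM Tris-HCl pH 7.5, 150 mM NaCl, 2 mM DTT, 0.0025% Tween-20, 0.1 mg/mL BSA, 1% DMSO. 60 min at room temperature; 665/620 nm ratio normalized to controls, IC50 from 11-point curve.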

SMILES | AC50 [1] | Ki [2]
C[C@@H]1[C@@H](C)C/C=C(\F)[C@H](C(=O)N(C)C2CCCOC2)N2CCC[C@H]2CN2C[C@@]3(CCCc4cc(Cl)ccc43)COc3ccc(cc32)C(=O)NS1(=O)=O (stereo partly shown) [Compound 58] | 55.7 nM | 0.041 nM
COCCN(CC1CCOCC1)C(=O)[C@H]1/C(F)=C/C[C@H](C)[C@@H](C)S(=O)(=O)NC(=O)c2ccc3c(c2)N(C[C@@H]2CCCN21)C[C@@]1(CCCc2cc(Cl)ccc21)CO3 [Compound 59] | 33.4 nM | 0.06 nM
CO[C@H]1CN(C(=O)[C@H]2/C(F)=C/C[C@H](C)[C@@H](C)S(=O)(=O)NC(=O)c3ccc4c(c3)N(C[C@@H]3CCCN32)C[C@@]2(CCCc3cc(Cl)ccc32)CO4)C[C@H]1OC [Compound 60] | 92.3 nM | 0.022 nM
C[C@@H]1[C@@H](C)C/C=C(\F)[C@H](C(=O)N(C)CCn2cccn2)N2CCC[C@H]2CN2C[C@@]3(CCCc4cc(Cl)ccc43)COc3ccc(cc32)C(=O)NS1(=O)=O [Compound 61] | 166 nM | 0.074 nM
C[C@@H]1[C@@H](C)C/C=C(\F)[C@H](C(=O)N(C)Cc2nnnn2C)N2CCC[C@H]2CN2C[C@@]3(CCCc4cc(Cl)ccc43)COc3ccc(cc32)C(=O)NS1(=O)=O [Compound 66] | 357 nM | 0.025 nM
C[C@@H]1[C@@H](C)C/C=C(\F)[C@H](C(=O)N(C)Cc2nnn(C)n2)N2CCC[C@H]2CN2C[C@@]3(CCCc4cc(Cl)ccc43)COc3ccc(cc32)C(=O)NS1(=O)=O [Compound 67] | 120 nM | 0.037 nM
COCCCN(CCOC)C(=O)[C@H]1/C(F)=C/C[C@H](C)[C@@H](C)S(=O)(=O)NC(=O)c2ccc3c(c2)N(C[C@@H]2CCCN21)C[C@@]1(CCCc2cc(Cl)ccc21)CO3 [Compound 70] | 41.9 nM | 0.028 nM
COCCN(CCOC)CCN(C)C(=O)[C@H]1/C(F)=C/C[C@H](C)[C@@H](C)S(=O)(=O)NC(=O)c2ccc3c(c2)N(C[C@@H]2CCCN21)C[C@@]1(CCCc2cc(Cl)ccc21)CO3 [Compound 73] | 91.4 nM | 0.021 nM
C[C@@H]1[C@@H](C)C/C=C(\F)[C@H](C(=O)N(CCO)CCN2CCOCC2)N2CCC[C@H]2CN2C[C@@]3(CCCc4cc(Cl)ccc43)COc3ccc(cc32)C(=O)NS1(=O)=O [Compound 74] | 436 nM | 0.02 nM
C[C@@H]1[C@@H](C)C/C=C(\F)[C@H](C(=O)N(C)CCN2CCCOCC2)N2CCC[C@H]2CN2C[C@@]3(CCCc4cc(Cl)ccc43)COc3ccc(cc32)C(=O)NS1(=O)=O [Compound 75] | 83 nM | 0.022 nM
COCCN(CCN1CCOCC1)C(=O)[C@H]1/C(F)=C/C[C@H](C)[C@@H](C)S(=O)(=O)NC(=O)c2ccc3c(c2)N(C[C@@H]2CCCN21)C[C@@]1(CCCc2cc(Cl)ccc21)CO3 [Compound 76] | 36.7 nM | 0.017 nM
COCCN(CCOC)C(=O)[C@H]1/C(F)=C/C[C@H](C)[C@@H](C)S(=O)(=O)NC(=O)c2ccc3c(c2)N(C[C@@H]2CCCN21)C[C@@]1(CCOc2cc(Cl)ccc21)CO3 [Compound 77] | 144 nM | 0.027 nM
C[C@@H]1[C@@H](C)C/C=C(\F)[C@H](C(=O)N(C)CCN2CCOCC2)N2CCC[C@H]2CN2C[C@@]3(CCOc4cc(Cl)ccc43)COc3ccc(cc32)C(=O)NS1(=O)=O [Compound 78] | 547 nM | 0.016 nM
C[C@@H]1[C@@H](C)C/C=C(\F)[C@H](C(=O)N(C)CC2OCCO2)N2CCC[C@H]2CN2C[C@@]3(CCCc4cc(Cl)ccc43)COc3ccc(cc32)C(=O)NS1(=O)=O [Compound 79] | 106 nM | 0.038 nM
Cc1nc(CN(C)C(=O)[C@H]2/C(F)=C/C[C@H](C)[C@@H](C)S(=O)(=O)NC(=O)c3ccc4c(c3)N(C[C@@H]3CCCN32)C[C@@]2(CCCc3cc(Cl)ccc32)CO4)co1 [Compound 80] | 134 nM | 0.079 nM
C[C@@H]1[C@@H](C)C/C=C(\F)[C@H](C(=O)N(C)Cc2ncnn2C)N2CCC[C@H]2CN2C[C@@]3(CCCc4cc(Cl)ccc43)COc3ccc(cc32)C(=O)NS1(=O)=O [Compound 81] | 537 nM | 0.068 nM
CCS(=O)(=O)CCN(C)C(=O)[C@H]1/C(F)=C/C[C@H](C)[C@@H](C)S(=O)(=O)NC(=O)c2ccc3c(c2)N(C[C@@H]2CCCN21)C[C@@]1(CCCc2cc(Cl)ccc21)CO3 [Compound 82] | 557 nM | 0.025 nM
C[C@@H]1[C@@H](C)C/C=C(\F)[C@H](C(=O)N2CCN(C)C3(CC3)C2)N2CCC[C@H]2CN2C[C@@]3(CCCc4cc(Cl)ccc43)COc3ccc(cc32)C(=O)NS1(=O)=O [Compound 83] | 252 nM | 0.061 nM
C[C@@H]1[C@@H](C)C/C=C(\F)[C@H](C(=O)N2CC(C)(N3CCOCC3)C2)N2CCC[C@H]2CN2C[C@@]3(CCCc4cc(Cl)ccc43)COc3ccc(cc32)C(=O)NS1(=O)=O [Compound 84] | 317 nM | 0.04 nM
COCCN1CCC(CN(C)C(=O)[C@H]2/C(F)=C/C[C@H](C)[C@@H](C)S(=O)(=O)NC(=O)c3ccc4c(c3)N(C[C@@H]3CCCN32)C[C@@]2(CCCc3cc(Cl)ccc32)CO4)CC1 [Compound 85] | 759 nM | 0.025 nM
C[C@@H]1[C@@H](C)C/C=C(\F)C(CO)(C(=O)N(C)CCN2CCOCC2)N2CCC[C@H]2CN2C[C@@]3(CCCc4cc(Cl)ccc43)COc3ccc(cc32)C(=O)NS1(=O)=O (stereo partly shown) [Compound 86] | 1600 nM | 0.032 nM
C[C@@H]1[C@@H](C)C/C=C(\F)[C@H](C(=O)N(C)CCN2CC(F)(F)C2)N2CCC[C@H]2CN2C[C@@]3(CCCc4cc(Cl)ccc43)COc3ccc(cc32)C(=O)NS1(=O)=O [Compound 87] | 84.8 nM | 0.071 nM
COCCN(CCOC)C(=O)[C@H]1/C(F)=C/C[C@H](C)CS(=O)(=O)NC(=O)c2ccc3c(c2)N(C[C@@H]2CCCN21)C[C@@]1(CCCc2cc(Cl)ccc21)CO3 [Compound 88] | 116 nM | 0.029 nM
